In patent US10654837B2, “Sulphamoylaryl derivatives and use thereof as medicaments for the treatment of liver fibrosis” (Janssen Pharmaceutica NV, priority 2017, dated 2020) one finds IC50 data, which are given here for 33 compounds.

This test deals with T1, 5HTR2B (Homo sapiens, UniProt P41595).
T1 construct: host or cells: human Maverick/293 cells
T1 sequence (P41595 whole entry): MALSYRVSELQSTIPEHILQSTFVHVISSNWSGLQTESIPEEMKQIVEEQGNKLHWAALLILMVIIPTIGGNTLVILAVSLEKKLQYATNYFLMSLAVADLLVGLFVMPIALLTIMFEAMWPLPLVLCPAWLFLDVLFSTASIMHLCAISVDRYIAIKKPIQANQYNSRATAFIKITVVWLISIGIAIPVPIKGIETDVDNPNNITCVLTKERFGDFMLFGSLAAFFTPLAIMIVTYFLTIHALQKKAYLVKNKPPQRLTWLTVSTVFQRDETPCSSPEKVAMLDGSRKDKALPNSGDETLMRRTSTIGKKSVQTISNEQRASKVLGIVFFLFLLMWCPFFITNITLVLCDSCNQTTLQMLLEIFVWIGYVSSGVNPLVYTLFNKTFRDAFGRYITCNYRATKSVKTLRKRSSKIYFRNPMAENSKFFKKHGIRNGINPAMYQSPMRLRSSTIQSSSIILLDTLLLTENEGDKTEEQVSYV
Kind of test: 5HTR2B antagonist activity, calcium mobilization assay in human Maverick/293 cells (serotonin as agonist). The following applies: intracellular calcium, emission 525 nm, read-out: Ca assay IC50. The format is cell-based. The protocol: The 5HTR2B antagonist activity was measured using human Maverick/293 cells in a calcium mobilization assay. The measurement starting with plating human Maverick/293 cells (log phase) onto 96-well black and incubate at 37° C. overnight, Followed by starving cells for 2 h by changing complete medium to DMEM without FBS, removing the medium from the 96-well plate. Loading staining calcium buffer into each well and incubated the plate at 37° C. for 50 min. After removal of staining calcium buffer, diluted antagonist were added into the well, incubate 15 to 30 minutes. Dispense serotonin as the 5HTR2B agonists into each well. Intracellular calcium concentration is recorded for 80 seconds by monitoring an emission at a wavelength of 525 nm with an excitation wavelength of 485 nm. Inhibition efficiency of the cell line was determined following the equation: % Inhibition=100%−(D−B)/(S−B)*100%. (S: The peak value in the presence of agonist serotonin; D: The peak value in the presence of different dilution compound or serotonin; B: The peak value in the presence of calcium HBSS buffer only). […] A dose response curve was fitted using nonlinear regression model with a sigmoidal dose response. The IC50 was automatically produced by GraphPad Prism 5.0.
Background: A change in cytosolic calcium serves as a functional read-out for many receptors and channels.
Regarding `COc1ccc(NS(=O)(=O)[C@@H]2CCOC2)cc1C(=O)Nc1ccc(F)c(C)c1` (single isomer, unassigned) [Compound 202b, (R*)N-4-fluoro-3-methylphenyl)-2-methoxy-5-(tetrahydrofuran-3-sulfonamido)benzamide], the IC50 (as a rule, the concentration that inhibits the measured activity by half) is 2.8 nM.

Regarding `COc1ccc(N(C)S(=O)(=O)C2CCOC2)cc1C(=O)Nc1ccc(F)c(C)c1` (single isomer, unassigned) [Compound 204a, (R*)—N-(4-Fluoro-3-methylphenyl)-2-methoxy-5-(N-methyltetrahydrofuran-3-sulfonamido)benzamide], the IC50 was determined as 50 nM.

On to `COc1ccc(N(C)S(=O)(=O)C2CCOC2)cc1C(=O)Nc1ccc(F)c(C)c1` (single isomer, unassigned) [Compound 204b, (S*)—N-(4-Fluoro-3-methylphenyl)-2-methoxy-5-(N-methyltetrahydrofuran-3-sulfonamido)benzamide], for which the IC50 was determined as 56 nM.

`COc1ccc(S(=O)(=O)NC2CC[C@H](O)C2)cc1C(=O)Nc1ccc(F)c(C)c1` (stereo in doubt) [Compound 15a, N-(4-Fluoro-3-methylphenyl)-5-(N-((cis)-3-hydroxycyclopentyl)sulfamoyl)-2-methoxybenzamide]: the half-maximal inhibitory concentration (IC50) is 2 nM.

With `COc1ccc(S(=O)(=O)NC2CCCC[C@@H]2O)cc1C(=O)Nc1ccc(F)c(C)n1` (stereo in doubt) [Compound 28a, N-(5-Fluoro-6-methylpyridin-2-yl)-5-(N-((trans)-2-hydroxycyclohexyl)sulfamoyl)-2-methoxybenzamide], the IC50 came out at 19 nM.

In the case of `COc1ccc(S(=O)(=O)NC2CCCC[C@H]2O)cc1C(=O)Nc1ccc(F)c(C)n1` (stereo in doubt) [Compound 28b, N-(5-Fluoro-6-methylpyridin-2-yl)-5-(N-((trans)-2-hydroxycyclohexyl)sulfamoyl)-2-methoxybenzamide], the IC50 came out at 119 nM.

As for `COc1ccc(S(=O)(=O)NC2CC[C@H](O)C2)cc1C(=O)Nc1ccc(F)c(C(F)F)c1` (stereo in doubt) [Compound 33b, N-(3-(Difluoromethyl)-4-fluorophenyl)-5-(N-((cis)-3-hydroxycyclopentyl)sulfamoyl)-2-methoxybenzamide], the IC50 came out at 0.4 nM.

As to `COc1ccc(S(=O)(=O)NC2COC[C@@H]2O)cc1C(=O)Nc1ccccc1Cl` (stereo in doubt) [Compound 56a, N-(2-Chlorophenyl)-5-(N-((cis)-4-hydroxytetrahydrofuran-3-yl)sulfamoyl)-2-methoxybenzamide], the IC50 worked out at 0.1 nM.

For `COc1ccc(S(=O)(=O)NC2COC[C@H]2O)cc1C(=O)Nc1ccccc1Cl` (stereo in doubt) [Compound 56b, N-(2-Chlorophenyl)-5-(N-((cis)-4-hydroxytetrahydrofuran-3-yl)sulfamoyl)-2-methoxybenzamide], the IC50 amounted to 0.2 nM.

As to `COc1ccc(S(=O)(=O)NC2CC(F)(F)C2)cc1C(=O)Nc1ccc(F)c(C)c1` [Compound 1, 5-(N-(3,3-Difluorocyclobutyl)sulfamoyl)-N-(4-fluoro-3-methylphenyl)-2-methoxybenzamide], the IC50 was 2.3 nM.

As for `COc1ccc(S(=O)(=O)N[C@H]2CCOC2)cc1C(=O)Nc1ccc(F)c(C)n1` [Compound 2], the IC50 was 0.6 nM.

With `COc1ccc(S(=O)(=O)N[C@H]2CCOC2)cc1C(=O)Nc1cccc(F)c1Cl` [Compound 3, (S)—N-(2-Chloro-3-fluorophenyl)-2-methoxy-5-(N-(tetrahydrofuran-3-yl)sulfamoyl) benzamide], the IC50 is 1.7 nM.

Consider `COc1ccc(S(=O)(=O)N[C@H]2CCOC2)cc1C(=O)Nc1ccc(F)c(C)c1` [Compound 4, (S)—N-(4-Fluoro-3-methylphenyl)-2-methoxy-5-(N-(tetrahydrofuran-3-yl)sulfamoyl)benzamide], for which the IC50 came out at 0.7 nM.

As for `COc1ccc(S(=O)(=O)NC2COC2)cc1C(=O)Nc1ccc(F)c(C)c1` [Compound 5, N-(4-Fluoro-3-methylphenyl)-2-methoxy-5-(N-(oxetan-3-yl)sulfamoyl) benzamide], the IC50 was determined as 4.2 nM.

As to `COc1ccc(S(=O)(=O)N[C@H]2C[C@H](O)C2)cc1C(=O)Nc1ccc(F)c(C)c1` [Compound 6a, N-(4-Fluoro-3-methylphenyl)-5-(N-((trans)-3-hydroxycyclobutyl)sulfamoyl)-2-methoxybenzamide], the IC50 was found to be 18 nM.

On to `COc1ccc(S(=O)(=O)N[C@H]2C[C@@H](O)C2)cc1C(=O)Nc1ccc(F)c(C)c1` [Compound 6b, N-(4-Fluoro-3-methylphenyl)-5-(N-((cis)-3-hydroxycyclobutyl)sulfamoyl)-2-methoxybenzamide], for which the IC50 is 1.9 nM.

Take `COc1ccc(S(=O)(=O)NC2CC(C)C2)cc1C(=O)Nc1ccc(F)c(C)c1` (stereo not drawn) [Compound 7, N-(4-Fluoro-3-methylphenyl)-2-methoxy-5-(N-(3-methylcyclobutyl)sulfamoyl) benzamide]: the IC50 was 5.4 nM.

In the case of `COc1ccc(S(=O)(=O)N[C@H]2C[C@@H](C)C2)cc1C(=O)Nc1ccc(F)c(C)c1` [Compound 7a, N-(4-Fluoro-3-methylphenyl)-2-methoxy-5-(N-((cis)-3-methylcyclobutyl)sulfamoyl)benzamide], the IC50 worked out at 3.8 nM.

Turning to `COc1ccc(S(=O)(=O)N[C@H]2C[C@H](C)C2)cc1C(=O)Nc1ccc(F)c(C)c1` [Compound 7b, N-(4-Fluoro-3-methylphenyl)-2-methoxy-5-(N-((trans)-3-methylcyclobutyl)sulfamoyl)benzamide], the IC50 is 6.9 nM.

Take `COc1ccc(S(=O)(=O)NC(C)C)cc1C(=O)Nc1ccc(F)c(C)c1` [Compound 8, N-(4-Fluoro-3-methylphenyl)-5-(N-isopropylsulfamoyl)-2-methoxybenzamide]: the IC50 is 2.5 nM.

As for `COc1ccc(S(=O)(=O)NC2(C)COC2)cc1C(=O)Nc1ccc(F)c(C)c1` [Compound 9, N-(4-Fluoro-3-methylphenyl)-2-methoxy-5-(N-(3-methyloxetan-3-yl)sulfamoyl) benzamide], the half-maximal inhibitory concentration (IC50) was determined as 2.2 nM.

With `COc1ccc(S(=O)(=O)NC(C)CO)cc1C(=O)Nc1ccc(F)c(C)c1` (stereo not drawn) [Compound 10, N-(4-Fluoro-3-methylphenyl)-5-(N-(1-hydroxypropan-2-yl)sulfamoyl)-2-methoxybenzamide], the IC50 stood at 4.5 nM.

As for `COc1ccc(S(=O)(=O)N[C@@H](C)CO)cc1C(=O)Nc1ccc(F)c(C)c1` [Compound 10a, (S)—N-(4-Fluoro-3-methylphenyl)-5-(N-(1-hydroxypropan-2-yl)sulfamoyl)-2-methoxybenzamide], the concentration for half-maximal inhibition (IC50) came out at 4.5 nM.

Take `COc1ccc(S(=O)(=O)N[C@H](C)CO)cc1C(=O)Nc1ccc(F)c(C)c1` [Compound 10b, (R)—N-(4-Fluoro-3-methylphenyl)-5-(N-(1-hydroxypropan-2-yl)sulfamoyl)-2-methoxybenzamide]: the IC50 was found to be 12 nM.

For the compound `COc1ccc(S(=O)(=O)NC(C)C(N)=O)cc1C(=O)Nc1ccc(F)c(C)c1` (stereo not drawn) [Compound 12, 5-(N-(1-Amino-1-oxopropan-2-yl)sulfamoyl)-N-(4-fluoro-3-methylphenyl)-2-methoxybenzamide], the IC50 amounted to 9.3 nM.

Turning to `COc1ccc(S(=O)(=O)N[C@@H](C)C(N)=O)cc1C(=O)Nc1ccc(F)c(C)c1` [Compound 12a, (S)-5-(N-(1-Amino-1-oxopropan-2-yl)sulfamoyl)-N-(4-fluoro-3-methylphenyl)-2-methoxybenzamide], the IC50 was 1.8 nM.

On to `COc1ccc(S(=O)(=O)N[C@H](C)C(N)=O)cc1C(=O)Nc1ccc(F)c(C)c1` [Compound 12b, (R)-5-(N-(1-Amino-1-oxopropan-2-yl)sulfamoyl)-N-(4-fluoro-3-methylphenyl)-2-methoxybenzamide], for which the IC50 turned out to be 122 nM.

In the case of `COc1ccc(S(=O)(=O)NC2(CO)COC2)cc1C(=O)Nc1ccc(F)c(C)c1` [Compound 13, N-(4-Fluoro-3-methylphenyl)-5-(N-(3-(hydroxymethyl)oxetan-3-yl)sulfamoyl)-2-methoxybenzamide], the IC50 worked out at 66.3 nM.

On to `COc1ccc(S(=O)(=O)NC2CC(C)(C)C2)cc1C(=O)Nc1ccc(F)c(C)c1` [Compound 14, 5-(N-(3,3-Dimethylcyclobutyl)sulfamoyl)-N-(4-fluoro-3-methylphenyl)-2-methoxybenzamide], for which the IC50 was determined as 14.6 nM.

For the compound `COc1ccc(S(=O)(=O)NC2CCOCC2)cc1C(=O)Nc1ccc(F)c(C)n1` [Compound 17, N-(5-Fluoro-6-methylpyridin-2-yl)-2-methoxy-5-(N-(tetrahydro-2H-pyran-4-yl)sulfamoyl)benzamide], the IC50 amounted to 7.2 nM.

On to `COc1ccc(S(=O)(=O)N[C@H]2CC[C@H](O)CC2)cc1C(=O)Nc1ccc(F)c(C)n1` [Compound 18, (trans)-N-(5-Fluoro-6-methylpyridin-2-yl)-5-(N-(−4-hydroxycyclohexyl)sulfamoyl)-2-methoxybenzamid], for which the IC50 amounted to 222 nM.

For the compound `COc1ccc(S(=O)(=O)NC2CCN(C)CC2)cc1C(=O)Nc1ccc(F)c(C)n1` [Compound 19, N-(5-Fluoro-6-methylpyridin-2-yl)-2-methoxy-5-(N-(1-methylpiperidin-4-yl)sulfamoyl)benzamide], the IC50 worked out at 173 nM.

Regarding `COc1ccc(S(=O)(=O)NC2CCCCC2)cc1C(=O)Nc1ccc(F)c(C)n1` [Compound 20, 5-(N-Cyclohexylsulfamoyl)-N-(5-fluoro-6-methylpyridin-2-yl)-2-methoxy benzamide], the IC50 stood at 4.4 nM.
